Series [1] deals with HEK293. Put plainly: Selectivity index, ratio of IC50 for human HDAC7 expressed in HEK293/T17 cells (unknown origin) to human HDAC6 expressed in HEK293/T17 cells. Type of series: cell-based.
Series [2] has as its system HEK293. The series can be described thus: Selectivity index, ratio of IC50 for human HDAC9 expressed in HEK293/T17 cells (unknown origin) to human HDAC6 expressed in HEK293/T17 cells. Type of series: cell-based.
Series [3] deals with HEK293. Put plainly: Selectivity index, ratio of IC50 for human HDAC3 expressed in HEK293/T17 cells (unknown origin) to human HDAC6 expressed in HEK293/T17 cells. Type of series: cell-based.
For series [4], the system named is HEK293. Put plainly: Selectivity index, ratio of IC50 for human HDAC2 expressed in HEK293/T17 cells (unknown origin) to human HDAC6 expressed in HEK293/T17 cells. The series is classed as cell-based.
Series [5] relates to SM1. The series can be described thus: Potentiation of antitumor immune response in C57BL/6 mouse harboring mouse SM1 cells assessed as decrease in tumor burden at 25 mg/kg, ip dosed 5 days per week before starting 15 mg/kg, ip anti-PD1 immune checkpoint blockade therapy measured on day 14. The series is classed as functional, organism-based. Conditions: time 14.0 day.
Series [6] deals with T1, Protein deacetylase HDAC6 (Mus musculus) (UniProt Q9Z2V5).
T1 sequence (whole entry): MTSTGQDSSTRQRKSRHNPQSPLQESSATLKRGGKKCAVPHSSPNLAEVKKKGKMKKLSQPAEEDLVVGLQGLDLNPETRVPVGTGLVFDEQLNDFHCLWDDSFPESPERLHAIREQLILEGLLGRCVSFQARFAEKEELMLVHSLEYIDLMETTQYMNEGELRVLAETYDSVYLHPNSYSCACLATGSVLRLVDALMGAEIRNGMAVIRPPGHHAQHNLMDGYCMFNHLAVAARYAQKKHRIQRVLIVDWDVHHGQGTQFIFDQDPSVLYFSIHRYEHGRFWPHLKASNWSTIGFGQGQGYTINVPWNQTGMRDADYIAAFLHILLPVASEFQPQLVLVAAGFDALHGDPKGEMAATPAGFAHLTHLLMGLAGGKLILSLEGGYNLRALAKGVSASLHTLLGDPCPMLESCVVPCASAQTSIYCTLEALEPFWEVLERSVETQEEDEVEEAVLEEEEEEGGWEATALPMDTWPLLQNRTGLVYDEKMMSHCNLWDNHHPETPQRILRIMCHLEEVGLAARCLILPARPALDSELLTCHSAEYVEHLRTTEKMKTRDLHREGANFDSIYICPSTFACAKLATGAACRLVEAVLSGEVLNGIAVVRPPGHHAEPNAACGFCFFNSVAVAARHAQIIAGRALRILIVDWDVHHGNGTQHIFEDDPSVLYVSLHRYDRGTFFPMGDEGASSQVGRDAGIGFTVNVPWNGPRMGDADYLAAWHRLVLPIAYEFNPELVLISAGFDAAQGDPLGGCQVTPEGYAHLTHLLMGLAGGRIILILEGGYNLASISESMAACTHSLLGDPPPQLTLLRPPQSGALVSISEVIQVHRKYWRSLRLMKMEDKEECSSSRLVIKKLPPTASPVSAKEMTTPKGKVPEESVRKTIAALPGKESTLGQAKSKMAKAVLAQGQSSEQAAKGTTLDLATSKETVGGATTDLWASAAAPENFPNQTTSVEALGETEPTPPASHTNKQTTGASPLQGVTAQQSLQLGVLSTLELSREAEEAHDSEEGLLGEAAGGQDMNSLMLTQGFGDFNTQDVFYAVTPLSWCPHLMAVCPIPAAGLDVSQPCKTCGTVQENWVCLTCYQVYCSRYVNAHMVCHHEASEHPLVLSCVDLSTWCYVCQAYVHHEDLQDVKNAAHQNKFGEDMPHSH
Put plainly: Inhibition of HDAC6 in INFgamma and LPS-induced mouse bone marrow derived macrophages assessed as decrease in IL10 gene expression at 5 uM by quantitative PCR analysis. Conditions: Macrophage. Type of series: tissue-based.

Series [7] concerns Mus musculus. The series can be described thus: Immunomodulatory activity in C57BL/6 mouse harboring mouse SM1 cells assessed as increase in CD8+ central memory cells at 25 mg/kg, ip dosed 5 days per week by flow cytometry. As to conditions: time 5.0 day/week. The series is classed as functional, organism-based.
The subject of series [8] is Mus musculus. Put plainly: Immunomodulatory activity in C57BL/6 mouse harboring mouse SM1 cells assessed as effect on immunosuppressive T-regs at 25 mg/kg, ip dosed 5 days per week by flow cytometry. The series is classed as functional, organism-based. Conditions: time 5.0 day/week. In general terms: Flow cytometry measures light scatter and fluorescence of single cells or particles in a stream.

Series [9] relates to Mus musculus. The series can be described thus: Immunomodulatory activity in C57BL/6 mouse harboring mouse SM1 cells assessed as increase in CD8+ effector T-cells and effector memory cells at 25 mg/kg, ip dosed 5 days per week by flow cytometry. Conditions: time 5.0 day/week. Type of series: functional, organism-based.
Series [10] in a line: Protein binding in human plasma at 10 uM incubated for 1 hr by LC-MS/MS analysis. The series is classed as ADME, cell-free. Conditions: read-out: PPB (converted).
Series [11] has as its system Mus musculus. The series can be described thus: Immunomodulatory activity in C57BL/6 mouse harboring mouse SM1 cells assessed as increase in CD8+ central memory cells at 25 mg/kg, ip dosed 5 days per week before starting 15 mg/kg, ip anti-PD1 immune checkpoint blockade therapy by flow cytometry. Type of series: functional, organism-based. As to conditions: time 5.0 day/week.

The subject of series [12] is Mus musculus. The series can be described thus: Immunomodulatory activity in C57BL/6 mouse harboring mouse SM1 cells assessed as effect on CD4+ T cells at 25 mg/kg, ip dosed 5 days per week before starting 15 mg/kg, ip anti-PD1 immune checkpoint blockade therapy by flow cytometry. Type of series: functional, organism-based. As to conditions: time 5.0 day/week.
Series [13] concerns Mus musculus. Put plainly: Immunomodulatory activity in C57BL/6 mouse harboring mouse SM1 cells assessed as increase in M1/M2 macrophages ratio at 25 mg/kg, ip dosed 5 days per week by flow cytometry. The series is classed as functional, organism-based. Conditions: time 5.0 day/week.
For series [14], the system named is HEK293. The series can be described thus: Selectivity index, ratio of IC50 for human HDAC4 expressed in HEK293/T17 cells (unknown origin) to human HDAC6 expressed in HEK293/T17 cells. The series is classed as cell-based.
Series [15] in a line: Half life in rat liver microsome at 10 uM by LC-MS/MS analysis. The series is classed as ADME. As to conditions: liver microsomes. (Liver microsomes are vesicles of endoplasmic reticulum, rich in cytochrome P450 enzymes.)
Series [16] has as its system Mus musculus. The series can be described thus: Immunomodulatory activity in C57BL/6 mouse harboring mouse SM1 cells assessed as increase in M1/M2 macrophages ratio at 25 mg/kg, ip dosed 5 days per week before starting 15 mg/kg, ip anti-PD1 immune checkpoint blockade therapy by flow cytometry. Type of series: functional, organism-based. Conditions: time 5.0 day/week.

In series [17] the test system is SM1. The series can be described thus: Antitumor activity against mouse SM1 cells transplanted in C57BL/6 mouse assessed as decrease in tumor burden at 25 mg/kg, ip dosed 5 days per week before starting 15 mg/kg, ip anti-PD1 immune checkpoint blockade therapy. The series is classed as functional, organism-based. Conditions: time 5.0 day/week.
Series [18] concerns Mus musculus. Put plainly: Immunomodulatory activity in C57BL/6 mouse harboring mouse SM1 cells assessed as reduction in natural killer T cells at 25 mg/kg, ip dosed 5 days per week before starting 15 mg/kg, ip anti-PD1 immune checkpoint blockade therapy by flow cytometry. As to conditions: time 5.0 day/week. Type of series: functional, organism-based.
The nature of series [19]: Half life in SGF by LC-MS/MS analysis. The series is classed as ADME.
For series [20], the target named is T1, Protein deacetylase HDAC6 (Mus musculus). The series can be described thus: Inhibition of human HDAC6 in mouse RAW264.7 cells assessed as increase in acetylated alpha-tubulin levels at 1 to 10 uM by immunoblot analysis. Type of series: cell-based. Conditions: Macrophage, dose microM 1-10. In general terms: Immunoblotting shows a protein as a band on a membrane.

Series [21] relates to HEK293. The series can be described thus: Selectivity index, ratio of IC50 for human HDAC6 expressed in HEK293/T17 cells (unknown origin) to human HDAC6 expressed in HEK293/T17 cells. Type of series: cell-based.

As usually defined, the half-life is the time needed for the level to fall by half in the phase considered. A lower half-life goes with fast loss.

Structures are written as SMILES. Calls of active or inactive are those of the source. A value given as a limit tells only on which side of the number the result lay.

Regarding `NCc1ccc(NC(=O)N(CCCCO)Cc2ccc(C(=O)NO)cc2)cc1`, the Ratio IC50 in series [1] came out at 3680; in [2], 15700; in series [3] it was 880; in series [4] it was 440; in [14], 20600; in series [21] it was 1. The TGI result in series [5] and in series [17] was “Active” in each case. Moreover, the inhibition result in [6] was “Active”. Also, the outcome in series [7], in series [9], in series [11], in series [13], in series [16] and in series [18] was Active. Further, the result in [8] and in series [12] was inactive. The fraction unbound at 1 h, 10 µM in series [10] was 0.981. Besides, the half-life at 10 µM in [15] is 177 min. The half-life in [19] is over 300 min. In addition, in [20], the inhibition entry was “Dose-dependent effect”.
